In patent publication US20040009890A1, “Broad spectrum inhibitors” (priority 2002, published 2004):

Tested on: wild type and multidrug resistant HIV strains
Test: Antiviral activity against wild type HIV and multidrug resistant patient isolates (PHA-PBMC, p24 Gag production)
Assay type: cell-based
Conditions: for antiviral activity against HIV derived from patient isolates that contain multiple mutations, compared with wild type HIV strains: patients never exposed to the tested compounds; for antiviral potency against multidrug resistant HIV strains compared with wild type: wild type vs multidrug resistant HIV strains
Description: IC50 's for broad spectrum protease inhibitors can be measured against wild type HIV and clinically isolated mutant HIV isolates, utilizing the PHA-PBMC exposed to HIV-1 (50 TCID50 dose/[…] PBMC) as target cells and using the inhibition of p24 Gag protein production as an endpoint. The amounts of p24 antigen produced by the cells can be determined on day 7 in culture using a commercially available radioimmunoassay kit.

Compound	antiviral activity against HIV derived from patient isolates that contain multiple mutations, compared with wild type HIV strains	antiviral potency against multidrug resistant HIV strains compared with wild type
COc1ccc(S(=O)(=O)N(CC(C)C)C[C@@H](O)[C@H](Cc2ccccc2)NC(=O)O[C@H]2CO[C@H]3OCC[C@H]32)cc1 [Compound 1]	equivalent to their activity against wild type HIV strains	equally effective against wild type and mutant HIV strains
CC(C)CN(C[C@@H](O)[C@H](Cc1ccccc1)NC(=O)O[C@H]1CCOC1)S(=O)(=O)c1ccc(N)cc1 [Compound 2, Amprenavir]	much less effective against the same mutant viruses	dramatically less potent against the multidrug resistant strains of HIV
CC(C)(C)NC(=O)[C@@H]1C[C@@H]2CCCC[C@@H]2CN1C[C@@H](O)[C@H](Cc1ccccc1)NC(=O)[C@H](CC(N)=O)NC(=O)c1ccc2ccccc2n1 [Compound 4, Saquinavir]		dramatically less potent against the multidrug resistant strains of HIV
CC(C)c1nc(CN(C)C(=O)N[C@H](C(=O)N[C@@H](Cc2ccccc2)C[C@H](O)[C@H](Cc2ccccc2)NC(=O)OCc2cncs2)C(C)C)cs1 [Compound 5, Ritonavir]		dramatically less potent against the multidrug resistant strains of HIV
CC(C)(C)NC(=O)[C@@H]1CN(Cc2cccnc2)CCN1C[C@@H](O)C[C@@H](Cc1ccccc1)C(=O)N[C@H]1c2ccccc2C[C@H]1O [Compound 6, Indinavir]		dramatically less potent against the multidrug resistant strains of HIV
Cc1c(O)cccc1C(=O)N[C@@H](CSc1ccccc1)[C@H](O)CN1C[C@H]2CCCC[C@H]2C[C@H]1C(=O)NC(C)(C)C [Compound 7, Nelfinavir]		dramatically less potent against the multidrug resistant strains of HIV
